The text below walks through data of patent publication US20120277209A1, “PYRAZINE COMPOUNDS AS PHOSPHODIESTERASE 10 INHIBITORS” (Amgen Inc., priority 2009, published 2012).

This experiment concerns the target PDE10 (UniProt Q9Y233). As to the kind of experiment: PDE10 enzyme inhibition, IMAP TR-FRET assay (MPDE10A7 Enzyme Activity and Inhibition). In kind it is biochemical. The essentials:
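PDE10A enzyme or tissue homogenate preincubated with compounds 30 min at room temperature, then fluorescein-labelled cAMP or cGMP added for 60 min. IMAP binding reagent stop, TR-FRET read. Values are mean IC50s, grouped into five potency classes.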

Setting [1] is: PDE10 enzyme inhibition, average IC50 data for each compound, read-out: Average IC50.

Read-outs that look alike come from different tables or passages of the source. A value given as a limit tells only on which side of the number the result lay.

Turning to `CCOC(=O)[C@H]1CCCN(c2nccnc2Oc2ccc(C(=O)c3nc4ccccc4[nH]3)cc2)C1` [drawing 831], the IC50 under setting [1] came to 0.843 nM. For the compound `COc1ncccc1-c1nccnc1Oc1ccc(Nc2nc3ccccc3s2)cc1` [Example 155, N-(4-(3-(2-methoxypyridin-3-yl)pyrazin-2-yloxy)phenyl)benzo[d]thiazol-2-amine], the IC50 (IC50 class against PDE10, read-out: IC50) is under 25 nM. Take `O=C(c1ccc(Oc2nccnc2C(=O)NCCc2ccc(C(F)(F)F)cc2)cc1)c1nc2ccccc2[nH]1` [drawing 807]: under setting [1], the half-inhibitory concentration (IC50) came to 24.6 nM.
